Measurements taken from patent publication EP0636633A1, “A triterpenoid saponin, extraction thereof and use to treat or prevent diabetes mellitus” (KOWA CHEMICAL INDUSTRIES CO., LTD., priority 1993, dated 1995).

Key:
[1] = tested on: sweet taste responses; assay: sweet taste response inhibition test; type: in vivo; settings: for taste of Aqueous Sucrose Solution, panelists ①②③④⑤: after 0.08% sample solution kept in mouth 2 min
Method: A sweet taste response inhibition test was effected for the triterpenoid saponin of the present invention and Gymnemic acid 1 and Gymnemic acid 2 obtained from Gymnema sylvestre, R. Br. known to have an inhibitory effect on glucose adsorption.
The triterpenoid saponin prepared in Example 1 and Gymnemic acid 1 and Gymnemic acid 2 were dissolved in a 0.01 M/liter aqueous sodium bicarbonate (NaHCO₃) solution to prepare a 0.08% triterpenoid saponin solution, a 0.08% Gymnemic acid 1 solution and a 0.08 % Gymnemic acid 2 solution.
Separately, 0.1 M/liter, 0.2 M/liter, 0.3 M/liter, 0.4 M/liter and 0.5 M/liter aqueous sucrose solutions were previously prepared. The sweet taste response inhibition test was effected according to the following procedure.
• 1) 5 ml of the triterpenoid saponin solution or Gymnemic acid 1 or 2 solution was kept in mouth so that it was spread in the whole mouth. • 2) 2 min after that, the sample solution was spit out, and the mouth was sufficiently rinsed with distilled water. • 3) The above-described aqueous sucrose solutions were successively kept in the mouth in the order of concentration from the lowest to the highest, and the sucrose concentration of the solution which was first sweet to the taste was recorded.

[2] = tested on: DDF male mice; assay: Acute toxicity test, forced oral administration; settings: for Number of dead animals: mouse, in vivo, po
Method: An acute toxicity test was effected by the following procedure.
Use was made of DDF male mice having a weight of 25 g, and each group consisted of 10 animals. The animals were ingested a solid feed (for breeding) while they freely got tap water as drinking water.
The triterpenoid saponin was suspended in 1% CMC physiological saline to a concentration of 200 mg/ml.
The test substance was administered with a probe by forced oral administration. The dose was 5000 mg/kg for one group and 2500 mg/kg for another group. Test period was 7 days. After the administration, the animals were continuously observed for 3 hr, and, thereafter, observation was effected of general symptoms every 6 hr.

SMILES: CC1(C)CC[C@]2(CO)[C@@H](O)C[C@]3(C)C(=CC[C@@H]4[C@@]5(C)CC[C@H](O[C@@H]6O[C@H](C(=O)O)[C@@H](O)[C@H](O)[C@H]6O[C@@H]6O[C@H](CO)[C@@H](O)[C@H](O)[C@H]6O)C(C)(C)[C@@H]5CC[C@]43C)[C@@H]2C1 [triterpenoid saponin, (3β,16β)-16,28-dihydroxyolean-12-en-3-yl-2-O-β-D-glucopyranosyl-β-D-glucopyranosiduronic acid]
- inhibitory effect on the sweet taste responses ([1]; 0.08% sample solution): no inhibitory effect on the sweet taste responses
- taste of Aqueous Sucrose Solution, panelists ①②③④⑤ ([1]; sucrose 0.1 M/liter): Δ○○Δ○
- taste of Aqueous Sucrose Solution, panelists ①②③④⑤ ([1]; sucrose 0.2 M/liter): ○○○○○
- Other general symptoms ([2]; Dose 2500 mg/kg, oral, 7 days): Do.
- Other general symptoms ([2]; Dose 5000 mg/kg, oral, 7 days): None of the animals exhibited any abnormal symptom.
- toxicity ([2]; acute toxicity test, oral, mice, 7 days): no toxicity was observed
- Number of dead animals ([2]; 2500 mg/kg): 0
- Number of dead animals ([2]; 5000 mg/kg): 0
